# Source: PubChem BioAssay (NCI)
#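 Growth conditions: 96-well plates. Treatment: test compound, 48 hours, 5 concentrations. Analysis: linear interpolation between bracketing concentrations; unreached endpoints set to highest concentration. TGI marks complete inhibition of growth.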
# Tested on: HOP-18 NSCLC
# Test: NCI tumour cell line growth inhibition, 48 h
row,Structure (SMILES),TGI [µM]
1,Cc1cccc(C)c1NC(=O)C(=O)C1C(=O)NC(=O)NC1=O,> 100
2,O=C1/C(=C/c2ccccc2)CNC/C1=C\c1ccccc1,22.9
3,COC(=O)/C=C/c1cc(OC)c(OC)c(OC)c1,> 100
4,CN1CCN(C)C12C=c1ccccc1=CC21CC1,> 100
5,CCCCN=C(NC#N)NCCCC,> 100
6,O=C(/N=N/C(=O)OCc1ccccc1)OCc1ccccc1,> 100

# Tested on: MCF7 breast
# Test: NCI tumour cell line growth inhibition, 48 h
row,Structure (SMILES),TGI [µM]
1,CN1CCN(C)C12C=c1ccccc1=CC21CC1,> 100

# Tested on: RPMI-8226 leukemia
# Test: NCI tumour cell line growth inhibition, 48 h
row,Structure (SMILES),TGI [µM]
1,Cc1cccc(C)c1NC(=O)C(=O)C1C(=O)NC(=O)NC1=O,> 100
2,O=C1/C(=C/c2ccccc2)CNC/C1=C\c1ccccc1,0.787
3,CN1CCN(C)C12C=c1ccccc1=CC21CC1,75.1
4,CCCCN=C(NC#N)NCCCC,> 100
5,CCCCCCCCCCNC1CC(OC2CC(O)(C(O)CO)Cc3c(O)c4c(c(O)c32)C(=O)c2c(OC)cccc2C4=O)OC(C)C1O (configuration not stated),3.73
6,O=C(/N=N/C(=O)OCc1ccccc1)OCc1ccccc1,> 100

# Tested on: SK-MEL-28 melanoma
# Test: NCI tumour cell line growth inhibition, 48 h
row,Structure (SMILES),TGI [µM]
1,Cc1cccc(C)c1NC(=O)C(=O)C1C(=O)NC(=O)NC1=O,> 100
2,O=C1/C(=C/c2ccccc2)CNC/C1=C\c1ccccc1,3.9
3,COC(=O)/C=C/c1cc(OC)c(OC)c(OC)c1,> 100
4,CN1CCN(C)C12C=c1ccccc1=CC21CC1,43
5,CCCCN=C(NC#N)NCCCC,> 100

# Tested on: TK-10 renal
# Test: NCI tumour cell line growth inhibition, 48 h
row,Structure (SMILES),TGI [µM]
1,Cc1cccc(C)c1NC(=O)C(=O)C1C(=O)NC(=O)NC1=O,> 100
2,O=C1/C(=C/c2ccccc2)CNC/C1=C\c1ccccc1,7.61
3,COC(=O)/C=C/c1cc(OC)c(OC)c(OC)c1,> 100
4,CN1CCN(C)C12C=c1ccccc1=CC21CC1,> 100
5,CCCCN=C(NC#N)NCCCC,> 100
6,CCCCCCCCCCNC1CC(OC2CC(O)(C(O)CO)Cc3c(O)c4c(c(O)c32)C(=O)c2c(OC)cccc2C4=O)OC(C)C1O (configuration not stated),56.5
7,O=C(/N=N/C(=O)OCc1ccccc1)OCc1ccccc1,> 100

# Tested on: T-47D breast
# Test: NCI tumour cell line growth inhibition, 48 h
row,Structure (SMILES),TGI [µM]
1,CN1CCN(C)C12C=c1ccccc1=CC21CC1,> 86.2

# Tested on: CCRF-CEM leukemia
# Test: NCI tumour cell line growth inhibition, 48 h
row,Structure (SMILES),TGI [µM]
1,Cc1cccc(C)c1NC(=O)C(=O)C1C(=O)NC(=O)NC1=O,> 100
2,O=C1/C(=C/c2ccccc2)CNC/C1=C\c1ccccc1,> 25.5
3,COC(=O)/C=C/c1cc(OC)c(OC)c(OC)c1,> 100
4,CN1CCN(C)C12C=c1ccccc1=CC21CC1,58.2
5,CCCCCCCCCCNC1CC(OC2CC(O)(C(O)CO)Cc3c(O)c4c(c(O)c32)C(=O)c2c(OC)cccc2C4=O)OC(C)C1O (configuration not stated),4.91
6,O=C(/N=N/C(=O)OCc1ccccc1)OCc1ccccc1,> 100

# Tested on: HL-60(TB) leukemia
# Test: NCI tumour cell line growth inhibition, 48 h
row,Structure (SMILES),TGI [µM]
1,Cc1cccc(C)c1NC(=O)C(=O)C1C(=O)NC(=O)NC1=O,> 100
2,COC(=O)/C=C/c1cc(OC)c(OC)c(OC)c1,> 100
3,CN1CCN(C)C12C=c1ccccc1=CC21CC1,46.1
4,O=C(/N=N/C(=O)OCc1ccccc1)OCc1ccccc1,> 100

# Tested on: HT29 colon
# Test: NCI tumour cell line growth inhibition, 48 h
row,Structure (SMILES),TGI [µM]
1,Cc1cccc(C)c1NC(=O)C(=O)C1C(=O)NC(=O)NC1=O,> 100
2,O=C1/C(=C/c2ccccc2)CNC/C1=C\c1ccccc1,3.13
3,COC(=O)/C=C/c1cc(OC)c(OC)c(OC)c1,> 100
4,CN1CCN(C)C12C=c1ccccc1=CC21CC1,32.7
5,CCCCN=C(NC#N)NCCCC,> 100
6,O=C(/N=N/C(=O)OCc1ccccc1)OCc1ccccc1,> 100

# Tested on: KM12 colon
# Test: NCI tumour cell line growth inhibition, 48 h
row,Structure (SMILES),TGI [µM]
1,Cc1cccc(C)c1NC(=O)C(=O)C1C(=O)NC(=O)NC1=O,> 100
2,O=C1/C(=C/c2ccccc2)CNC/C1=C\c1ccccc1,2.66
3,COC(=O)/C=C/c1cc(OC)c(OC)c(OC)c1,> 100
4,CN1CCN(C)C12C=c1ccccc1=CC21CC1,68.4
5,CCCCN=C(NC#N)NCCCC,> 100
6,O=C(/N=N/C(=O)OCc1ccccc1)OCc1ccccc1,> 100

# Tested on: P388/ADR leukemia
# Test: NCI tumour cell line growth inhibition, 48 h
row,Structure (SMILES),TGI [µM]
1,CCCCCCCCCCNC1CC(OC2CC(O)(C(O)CO)Cc3c(O)c4c(c(O)c32)C(=O)c2c(OC)cccc2C4=O)OC(C)C1O (configuration not stated),3.34

# Tested on: SW-620 colon
# Test: NCI tumour cell line growth inhibition, 48 h
row,Structure (SMILES),TGI [µM]
1,Cc1cccc(C)c1NC(=O)C(=O)C1C(=O)NC(=O)NC1=O,> 100
2,O=C1/C(=C/c2ccccc2)CNC/C1=C\c1ccccc1,2.11
3,COC(=O)/C=C/c1cc(OC)c(OC)c(OC)c1,> 100
4,CN1CCN(C)C12C=c1ccccc1=CC21CC1,48.3
5,CCCCN=C(NC#N)NCCCC,42
6,O=C(/N=N/C(=O)OCc1ccccc1)OCc1ccccc1,> 100

# Tested on: SK-MEL-5 melanoma
# Test: NCI tumour cell line growth inhibition, 48 h
row,Structure (SMILES),TGI [µM]
1,Cc1cccc(C)c1NC(=O)C(=O)C1C(=O)NC(=O)NC1=O,> 100
2,O=C1/C(=C/c2ccccc2)CNC/C1=C\c1ccccc1,4.07
3,COC(=O)/C=C/c1cc(OC)c(OC)c(OC)c1,> 100
4,CN1CCN(C)C12C=c1ccccc1=CC21CC1,51.1
5,CCCCN=C(NC#N)NCCCC,> 100
6,CCCCCCCCCCNC1CC(OC2CC(O)(C(O)CO)Cc3c(O)c4c(c(O)c32)C(=O)c2c(OC)cccc2C4=O)OC(C)C1O (configuration not stated),3.06
7,O=C(/N=N/C(=O)OCc1ccccc1)OCc1ccccc1,> 100

# Tested on: M19-MEL melanoma
# Test: NCI tumour cell line growth inhibition, 48 h
row,Structure (SMILES),TGI [µM]
1,Cc1cccc(C)c1NC(=O)C(=O)C1C(=O)NC(=O)NC1=O,> 100
2,O=C1/C(=C/c2ccccc2)CNC/C1=C\c1ccccc1,2.72
3,COC(=O)/C=C/c1cc(OC)c(OC)c(OC)c1,> 100
4,CN1CCN(C)C12C=c1ccccc1=CC21CC1,37.1
5,CCCCN=C(NC#N)NCCCC,> 100
6,O=C(/N=N/C(=O)OCc1ccccc1)OCc1ccccc1,> 100

# Tested on: HS 578T breast
# Test: NCI tumour cell line growth inhibition, 48 h
row,Structure (SMILES),TGI [µM]
1,CN1CCN(C)C12C=c1ccccc1=CC21CC1,> 31.6

# Tested on: P388 leukemia
# Test: NCI tumour cell line growth inhibition, 48 h
row,Structure (SMILES),TGI [µM]
1,CCCCCCCCCCNC1CC(OC2CC(O)(C(O)CO)Cc3c(O)c4c(c(O)c32)C(=O)c2c(OC)cccc2C4=O)OC(C)C1O (configuration not stated),0.362

# Tested on: OVCAR-8 ovarian
# Test: NCI tumour cell line growth inhibition, 48 h
row,Structure (SMILES),TGI [µM]
1,Cc1cccc(C)c1NC(=O)C(=O)C1C(=O)NC(=O)NC1=O,> 100
2,O=C1/C(=C/c2ccccc2)CNC/C1=C\c1ccccc1,5.88
3,COC(=O)/C=C/c1cc(OC)c(OC)c(OC)c1,> 100
4,CN1CCN(C)C12C=c1ccccc1=CC21CC1,98
5,CCCCN=C(NC#N)NCCCC,> 100
6,O=C(/N=N/C(=O)OCc1ccccc1)OCc1ccccc1,> 100

# Tested on: RXF 393 renal
# Test: NCI tumour cell line growth inhibition, 48 h
row,Structure (SMILES),TGI [µM]
1,Cc1cccc(C)c1NC(=O)C(=O)C1C(=O)NC(=O)NC1=O,> 100
2,COC(=O)/C=C/c1cc(OC)c(OC)c(OC)c1,> 100
3,CN1CCN(C)C12C=c1ccccc1=CC21CC1,> 92.6
4,CCCCN=C(NC#N)NCCCC,> 100
5,CCCCCCCCCCNC1CC(OC2CC(O)(C(O)CO)Cc3c(O)c4c(c(O)c32)C(=O)c2c(OC)cccc2C4=O)OC(C)C1O (configuration not stated),2.75
6,O=C(/N=N/C(=O)OCc1ccccc1)OCc1ccccc1,> 100

# Tested on: MDA-MB-231 breast
# Test: NCI tumour cell line growth inhibition, 48 h
row,Structure (SMILES),TGI [µM]
1,CN1CCN(C)C12C=c1ccccc1=CC21CC1,> 100

# Tested on: DLD-1 colon
# Test: NCI tumour cell line growth inhibition, 48 h
row,Structure (SMILES),TGI [µM]
1,Cc1cccc(C)c1NC(=O)C(=O)C1C(=O)NC(=O)NC1=O,> 100
2,O=C1/C(=C/c2ccccc2)CNC/C1=C\c1ccccc1,1.08
3,COC(=O)/C=C/c1cc(OC)c(OC)c(OC)c1,> 100
4,CN1CCN(C)C12C=c1ccccc1=CC21CC1,68.2
5,CCCCN=C(NC#N)NCCCC,> 100
6,CCCCCCCCCCNC1CC(OC2CC(O)(C(O)CO)Cc3c(O)c4c(c(O)c32)C(=O)c2c(OC)cccc2C4=O)OC(C)C1O (configuration not stated),2.28

# Tested on: U251 CNS
# Test: NCI tumour cell line growth inhibition, 48 h
row,Structure (SMILES),TGI [µM]
1,Cc1cccc(C)c1NC(=O)C(=O)C1C(=O)NC(=O)NC1=O,> 100
2,O=C1/C(=C/c2ccccc2)CNC/C1=C\c1ccccc1,1.37
3,CN1CCN(C)C12C=c1ccccc1=CC21CC1,> 82
